Laboratory results: patent US11802120B2, “Fused cyclic urea derivatives as CRHR2 antagonist” (RaQualia Pharma Inc., priority 2018, dated 2023)

Assays:
human CRHR2-alpha = target: T1, human CRHR2-alpha (Homo sapiens, UniProt Q13324); experiment: cAMP functional assay for human CRHR2 (LANCE Ultra cAMP, TR-FRET); assay type: cell-based; conditions: CHO-K1 cells expressing human CRHR2-alpha, agonist human urocortin2 at EC80, cAMP; read-out: IC50 against CRHR2
T1 sequence (Q13324 1-411): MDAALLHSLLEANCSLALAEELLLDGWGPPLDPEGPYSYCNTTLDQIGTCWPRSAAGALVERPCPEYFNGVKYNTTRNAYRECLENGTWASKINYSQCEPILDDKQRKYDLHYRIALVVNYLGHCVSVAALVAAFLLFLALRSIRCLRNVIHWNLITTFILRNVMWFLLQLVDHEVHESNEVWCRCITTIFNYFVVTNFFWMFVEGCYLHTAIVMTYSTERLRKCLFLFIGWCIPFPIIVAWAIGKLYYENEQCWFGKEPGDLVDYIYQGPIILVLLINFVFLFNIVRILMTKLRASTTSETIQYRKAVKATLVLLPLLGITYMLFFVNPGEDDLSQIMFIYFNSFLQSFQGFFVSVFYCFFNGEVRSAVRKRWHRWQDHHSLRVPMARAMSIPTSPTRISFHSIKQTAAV
Outline: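 First, starved and frozen CHO-K1 cells expressing the receptor are thawed into IBMX-containing HBSS buffer (pH 7.4). Next, compounds are added for 30 min at 25° C. Then agonist at EC80 (urocortin2 or CRF, per receptor) is added for another 30 min, followed by cAMP detection reagents.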

human CRHR1-beta = target: T2, human CRHR1-beta (Homo sapiens, UniProt P34998); experiment: cAMP functional assay for human CRHR1 (LANCE Ultra cAMP, TR-FRET); assay type: cell-based; conditions: CHO-K1 cells expressing human CRHR1-beta, agonist CRF at EC80, cAMP; read-out: IC50 against CRHR1
T2 sequence (P34998 24-444 isoform P34998-1 limits assumed): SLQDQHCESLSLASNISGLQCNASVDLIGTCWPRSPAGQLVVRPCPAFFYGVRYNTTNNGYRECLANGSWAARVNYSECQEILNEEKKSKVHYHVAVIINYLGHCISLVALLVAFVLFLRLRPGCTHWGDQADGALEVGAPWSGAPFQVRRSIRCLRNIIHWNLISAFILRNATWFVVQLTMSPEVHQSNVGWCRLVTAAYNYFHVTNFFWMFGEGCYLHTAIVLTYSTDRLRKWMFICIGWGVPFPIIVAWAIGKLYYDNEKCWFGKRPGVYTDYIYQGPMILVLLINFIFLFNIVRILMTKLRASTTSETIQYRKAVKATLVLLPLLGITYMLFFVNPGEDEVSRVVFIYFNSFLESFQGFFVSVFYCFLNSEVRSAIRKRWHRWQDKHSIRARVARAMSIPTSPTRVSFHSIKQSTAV
Method: cAMP functional assay for human CRHR1 and CRHR2
The ability of the compounds of this invention to inhibit either CRHR2 or CRHR1 is assessed by 3′,5′-cyclic adenosine monophosphate (cAMP) production in cells using the LANCE Ultra cAMP assay kit (ParkinElmer), which are designed based on the homogeneous time-resolved fluorescence resonance energy transfer (TR-FRET) immunoassay.
CHO-K1 (Chinese hamster ovary) cells stably expressing either human CRHR2-alpha (DiscoveRX, Cat. 95-0048C2) or human CRHR1-beta (DiscoveRX, Cat. 95-0047C2) are grown in HAM's F12 media supplemented with 10% fetal bovine serum (FBS), 100 units/mL penicillin, 100 microg/mL hygromycin and 0.5 microg/mL geneticin at 37° C. in 5% CO2 humidified incubator to 80% confluence. After 7 hours starvation treatment in culture media containing 0.1% FBS, the cells are washed with Hanks balanced salt solution (HBSS) and cryopreserved.
For cAMP assay, frozen cells are thawed and washed with HBSS, followed by resuspended in assay buffer (HBSS containing 0.1% bovine serum albumin, 0.5 mM isobutylmethylxanthine and 5 mM Hepes, pH 7.4) at the appropriate concentration for the assay. The cell suspensions are plated on 384-well microplates (Greiner Bio-One) at a density of 4,000 cells per well. After preincubating the cells with various concentrations of the compounds for 30 min at 25° C., an assay buffer containing EC80 concentration of each agonist is added and the cells are incubated for 30 min at 25° C. Human urocortin2 (Peptide Institute) and CRF (Peptide Institute) are used as agonists for CRHR2 and CRHR1, respectively. For the termination of assay, europium-labeled cAMP tracer and ULight (registered trademark) dye labeled cAMP antibodies, both prepared with Lance-Ultra cAMP detection reagent (Perkin Elmer) are added in the plate and incubate for 60 min at 25° C. After incubation, TR-FRET signal is detected by EnVision plate reader (PerkinElmer). The IC50 values for compounds are calculated from dose-response curves by fitting the percent inhibition using XLfit (ID Business Solutions).

| Structure (SMILES) | IC50 (human CRHR2-alpha) [µM] | IC50 (human CRHR1-beta) [µM] |
| --- | --- | --- |
| Cc1ncc(Cl)cc1C(=O)N[C@H]1CC[C@H](Cn2c(=O)n(-c3ccc(F)cc3)c3ccccc32)CC1 [Example 15, 5-chloro-N-((1r,4r)-4-((3-(4-fluorophenyl)-2-oxo-2,3-dihydro-1H-benzo[d]imidazol-1-yl)methyl)cyclohexyl)-2-methylnicotinamide] | < 0.3 | < 1 |
| CC(=O)c1ccc(-n2c(=O)n(C[C@H]3CC[C@H](NC(=O)c4cc(Cl)cnc4C)CC3)c3ccccc32)cc1 [Example 18, N((1r,4r)-4-((3-(4-acetylphenyl)-2-oxo-2,3-dihydro-1H-benzo[d]imidazol-1-yl)methyl)cyclohexyl)-5-chloro-2-methylnicotinamide] | < 0.3 | < 1 |
| Cc1ccc(-n2c(=O)n(C[C@H]3CC[C@H](NC(=O)c4cc(Cl)cnc4C)CC3)c3ccccc32)cc1 [Example 25, 5-chloro-2-methyl-N-((1r,4r)-4-((2-oxo-3-(p-tolyl)-2,3-dihydro-1H-benzo[d]imidazol-1-yl)methyl)cyclohexyl)nicotinamide] | < 0.3 | < 1 |
| COc1ccc(-n2c(=O)n(C[C@H]3CC[C@H](NC(=O)c4cc(Cl)cnc4C)CC3)c3ccccc32)cc1 [Example 27, 5-chloro-N-((1r,4r)-4-((3-(4-methoxyphenyl)-2-oxo-2,3-dihydro-1H-benzo[d]imidazol-1-yl)methyl)cyclohexyl)-2-methylnicotinamide] | < 0.3 | < 1 |
| Cc1ccc(-n2c(=O)n(C[C@H]3CC[C@H](NC(=O)c4cc(Cl)cnc4C)CC3)c3ccccc32)c(C)n1 [Example 32, 5-chloro-N-((1r,4r)-4-((3-(2,6-dimethylpyridin-3-yl)-2-oxo-2,3-dihydro-1H-benzo[d]imidazol-1-yl)methyl)cyclohexyl)-2-methylnicotinamide] | < 0.3 | < 1 |
| COc1ccccc1-n1c(=O)n(C[C@H]2CC[C@H](NC(=O)c3cc(Cl)cnc3C)CC2)c2ccccc21 [Example 34, 5-chloro-N-((1r,4r)-4-((3-(2-methoxyphenyl)-2-oxo-2,3-dihydro-1H-benzo[d]imidazol-1-yl)methyl)cyclohexyl)-2-methylnicotinamide] | < 0.3 | < 1 |
| COc1cc(-n2c(=O)n(C[C@H]3CC[C@H](NC(=O)c4cc(Cl)cnc4C)CC3)c3ccccc32)ccn1 [Example 45, 5-chloro-N-((1r,4r)-4-((3-(2-methoxypyridin-4-yl)-2-oxo-2,3-dihydro-1H-benzo[d]imidazol-1-yl)methyl)cyclohexyl)-2-methylnicotinamide] | < 0.3 | < 1 |
| Cc1ncc(Cl)cc1C(=O)N[C@H]1CC[C@H](Cn2c(=O)n(-c3ccc(OCCO)nc3)c3ccccc32)CC1 [Example 50, 5-chloro-N-((1r,4r)-4-((3-(6-(2-hydroxyethoxy)pyridin-3-yl)-2-oxo-2,3-dihydro-1H-benzo[d]imidazol-1-yl)methyl)cyclohexyl)-2-methylnicotinamide] | < 0.3 | < 1 |
| Cc1ncc(Cl)cc1C(=O)N[C@H]1CC[C@H](Cn2c(=O)n(-c3ccc(C(N)=O)nc3)c3ccccc32)CC1 [Example 62, 5-(3-(((1r,4r)-4-(5-chloro-2-methylnicotinamido)cyclohexyl)methyl)-2-oxo-2,3-dihydro-1H-benzo[d]imidazol-1-yl)picolinamide] | < 0.3 | < 1 |
| CNC(=O)c1ccc(-n2c(=O)n(C[C@H]3CC[C@H](NC(=O)c4cc(Cl)cnc4C)CC3)c3ccccc32)cn1 [Example 63, 5-(3-(((1r,4r)-4-(5-chloro-2-methylnicotinamido)cyclohexyl)methyl)-2-oxo-2,3-dihydro-1H-benzo[d]imidazol-1-yl)-N-methylpicolinamide] | < 0.3 | < 1 |
| Cc1ncc(Cl)cc1C(=O)N[C@H]1CC[C@H](Cn2c(=O)n(-c3ccc(N(C)CCO)nc3)c3ccccc32)CC1 [Example 64, 5-chloro-N-((1r,4r)-4-((3-(6-((2-hydroxyethyl)(methyl)amino)pyridin-3-yl)-2-oxo-2,3-dihydro-1H-benzo[d]imidazol-1-yl)methyl)cyclohexyl)-2-methylnicotinamide] | < 0.3 | < 1 |
| Cc1ncc(Cl)cc1C(=O)N[C@H]1CC[C@H](Cn2c(=O)n(-c3ccc(N(C)C)nn3)c3ccccc32)CC1 [Example 67, 5-chloro-N-((1r,4r)-4-((3-(6-(dimethylamino)pyridazin-3-yl)-2-oxo-2,3-dihydro-1H-benzo[d]imidazol-1-yl)methyl)cyclohexyl)-2-methylnicotinamide] | < 0.3 | < 1 |
| Cc1ncc(Cl)cc1C(=O)N[C@H]1CC[C@H](Cn2c(=O)n(-c3ccc(OCCO)nn3)c3ccccc32)CC1 [Example 69, 5-chloro-N-((1r,4r)-4-((3-(6-(2-hydroxyethoxy)pyridazin-3-yl)-2-oxo-2,3-dihydro-1H-benzo[d]imidazol-1-yl)methyl)cyclohexyl)-2-methylnicotinamide] |  | < 1 |
| Cc1ncc(Cl)cc1C(=O)N[C@H]1CC[C@H](Cn2c(=O)n(-c3ccc(OCCN(C)C)cc3)c3ccccc32)CC1 [Example 73, 5-chloro-N-((1r,4r)-4-((3-(4-(2-(dimethylamino)ethoxy)phenyl)-2-oxo-2,3-dihydro-1H-benzo[d]imidazol-1-yl)methyl)cyclo-hexyl)-2-methylnicotinamide] |  | < 1 |
| Cc1ncc(Cl)cc1C(=O)N[C@H]1CC[C@H](Cn2c(=O)n(-c3ccc(OC[C@H]4CNCCO4)nc3)c3ccccc32)CC1 [Example 74, 5-chloro-2-methyl-N-((1R,4r)-4-((3-(6-((R)-morpholin-2-ylmethoxy)pyridin-3-yl)-2-oxo-2,3-dihydro-1H-benzo[d]imidazol-1-yl)methyl)cyclohexyl)nicotinamide] |  | < 1 |
| Cc1ncc(Cl)cc1C(=O)N[C@H]1CC[C@H](Cn2c(=O)n(-c3ccc(N4CC[C@H](O)C4)nc3)c3ccccc32)CC1 [Example 80, 5-chloro-N-((1S,4r)-4-((3-(6-((S)-3-hydroxypyrrolidin-1-yl)pyridin-3-yl)-2-oxo-2,3-dihydro-1H-benzo[d]imidazol-1-yl)methyl)cyclohexyl)-2-methylnicotinamide] |  | < 1 |
| Cc1ncc(Cl)cc1C(=O)N[C@H]1CC[C@H](Cn2c(=O)n(-c3ccc(N4CC[C@@H](O)C4)nc3)c3ccccc32)CC1 [Example 81, 5-chloro-N-((1R,4r)-4-((3-(6-((R)-3-hydroxypyrrolidin-1-yl)pyridin-3-yl)-2-oxo-2,3-dihydro-1H-benzo[d]imidazol-1-yl)methyl)cyclohexyl)-2-methylnicotinamide] |  | < 1 |
| Cc1ncc(Cl)cc1C(=O)N[C@H]1CC[C@H](CN2C(=O)N(c3ccccc3)Cc3ccccc32)CC1 [Example 136, 5-chloro-2-methyl-N-((1r,4r)-4-((2-oxo-3-phenyl-3,4-dihydro-quinazolin-1(2H)-yl)methyl)cyclohexyl)nicotinamide] |  | < 1 |
